In the NIST ThermoML archive (doi:10.1016/j.jct.2016.03.012):
Numbers after ± are expanded uncertainties.

Experiment: wn = mass fraction of the nth substance listed
Conditions: 101 kPa, Liquid; for viscosity: Capillary tube (Ostwald / Ubbelohde) method; for speed of sound: Frequency=3 MHz, Linear variable-path acoustic interferometer; for mass density: Pycnometric method

O=C[C@@H](O)[C@@H](O)[C@H](O)[C@H](O)CO [D-mannose] + O
Conditions	mass density, w1 = 0.025 [kg/m3]	mass density, w1 = 0.05 [kg/m3]	speed of sound, w1 = 0.025 [m/s]	speed of sound, w1 = 0.05 [m/s]	viscosity, w1 = 0.025 [mPa·s]	viscosity, w1 = 0.05 [mPa·s]
293.15 K	–	1017.15 ± 1.3	1495.7 ± 3.4	1508.3 ± 3.4	1.074 ± 0.025	1.146 ± 0.026
298.15 K	–	1016.04 ± 1.3	1506.6 ± 3.4	1516.6 ± 3.4	0.9514 ± 0.022	1.007 ± 0.023
303.15 K	1005.29 ± 1.3	1014.73 ± 1.3	1516.9 ± 3.4	1525.2 ± 3.4	0.8479 ± 0.019	0.8925 ± 0.021
308.15 K	1003.71 ± 1.3	1013.21 ± 1.3	1526.9 ± 3.4	1534.1 ± 3.4	0.7636 ± 0.017	0.8017 ± 0.018
313.15 K	1001.93 ± 1.3	1011.5 ± 1.3	1535.2 ± 3.4	1542.6 ± 3.4	0.6922 ± 0.016	0.7265 ± 0.017
318.15 K	999.95 ± 1.3	1009.58 ± 1.3	1543 ± 3.4	1551 ± 3.4	0.6347 ± 0.015	0.6654 ± 0.015
